The results in this text go back to patent US12502393B2, “Dual mode of action soluble guanylate cyclase activators and phosphodiesterase inhibitors and uses thereof” (TOPADUR PHARMA AG, priority 2018, dated 2025).

The IC50 is the concentration that inhibits the measured activity by half.

The first data set addresses T1, recombinant human (rh) PDE5A (Homo sapiens, UniProt O76074).
T1 construct: GST; purchased SIGMA E9034
Kind of data set: Phosphodiesterase-5 activity assay (radiometric SPA). Format: biochemical. To be noted: rhPDE5A1, 0.5 μM cGMP, 20 min at 37° C.
For `CCCc1nc(C)c2c(=O)[nH]c(-c3cc(S(=O)(=O)N4CCC([C@H](O)CO[N+](=O)[O-])CC4)ccc3OCC)nn12` [Compound 2d, (S)-2-(1-((4-ethoxy-3-(5-methyl-4-oxo-7-propyl-3,4-dihydroimidazo[5,1-f][1,2,4]triazin-2-yl)phenyl)sulfonyl)piperidin-4-yl)-2-hydroxyethyl nitrate], the IC50 stood at 160 pM.

On to “4-ethoxy-3-(5-methyl-4-oxo-7-propyl-3,4-dihydroimidazo[5,1-f][1,2,4]triazin-2-yl)benzenesulfonyl chloride [Compound 24]”, for which the IC50 came to 400 pM. `CCCc1nn(C)c2c(=O)[nH]c(-c3cc(S(=O)(=O)N4CCC(C(O)CCO)CC4)ccc3OCC)nc12` (single isomer, unassigned) [Compound 14-2, 5-(5-((4-(1,3-dihydroxypropyl)piperidin-1-yl)sulfonyl)-2-ethoxyphenyl)-1-methyl-3-propyl-1,6-dihydro-7H-pyrazolo[4,3-d]pyrimidin-7-one]: the IC50 was found to be 3900 pM. The same measure, in the same setting: the same measure for `CCCc1nc(C)c2c(=O)[nH]c(-c3cc(S(=O)(=O)N4CCC(C(CO)O[N+](=O)[O-])CC4)ccc3OCC)nn12` (single isomer, unassigned) [Compound 2l, 1-(1-((4-ethoxy-3-(5-methyl-4-oxo-7-propyl-3,4-dihydroimidazo[5,1-f][1,2,4]triazin-2-yl)phenyl)sulfonyl)piperidin-4-yl)-2-hydroxyethyl nitrate]: 170 pM; for `CCCc1nn(C)c2c(=O)[nH]c(-c3cc(S(=O)(=O)N4CCC(C(O)CCO[N+](=O)[O-])CC4)ccc3OCC)nc12` (single isomer, unassigned) [Compound 1f, 3-(1-((4-ethoxy-3-(1-methyl-7-oxo-3-propyl-6,7-dihydro-1H-pyrazolo[4,3-d]pyrimidin-5-yl)phenyl)sulfonyl)piperidin-4-yl)-3-hydroxypropyl nitrate]: 3800 pM; for `CCCc1nn(C)c2c(=O)[nH]c(-c3cc(S(=O)(=O)N4CCC([C@@H](CO[N+](=O)[O-])O[N+](=O)[O-])CC4)ccc3OCC)nc12` [Compound 1b, (S)-1-(1-((4-ethoxy-3-(1-methyl-7-oxo-3-propyl-6,7-dihydro-1H-pyrazolo[4,3-d]pyrimidin-5-yl)phenyl)sulfonyl)piperidin-4-yl)ethane-1,2-diyl dinitrate]: 4900 pM. For `CCCc1nc(C)c2c(=O)[nH]c(-c3cc(S(=O)(=O)N4CCC(C(O)C(CO)CO)CC4)ccc3OCC)nn12` (centres unmarked) [Compound 29, 2-(5-((4-(1,3-dihydroxy-2-(hydroxymethyl)propyl)piperidin-1-yl)sulfonyl)-2-ethoxyphenyl)-5-methyl-7-propylimidazo[5,1-f][1,2,4]triazin-4(3H)-one], the IC50 is 370 pM. Consider `CCCc1nn(C)c2c(=O)[nH]c(-c3cc(S(=O)(=O)N4CCC(C(O)(CCO)CCO[N+](=O)[O-])CC4)ccc3OCC)nc12` (centres unmarked) [Compound 1g, 3-(1-((4-ethoxy-3-(1-methyl-7-oxo-3-propyl-6,7-dihydro-1H-pyrazolo[4,3-d]pyrimidin-5-yl)phenyl)sulfonyl)piperidin-4-yl)-3,5-dihydroxypentyl nitrate], for which the IC50 was 4800 pM. Regarding `CCCc1nn(C)c2c(=O)[nH]c(-c3cc(S(=O)(=O)N4CCC(C(O)CCO)CC4)ccc3OCC)nc12` (single isomer, unassigned) [Compound 14-1, 5-(5-((4-(1,3-dihydroxypropyl)piperidin-1-yl)sulfonyl)-2-ethoxyphenyl)-1-methyl-3-propyl-1,6-dihydro-7H-pyrazolo[4,3-d]pyrimidin-7-one], the IC50 came to 4400 pM.

Take `CCCc1nn(C)c2c(=O)[nH]c(-c3cc(S(=O)(=O)N4CCC(C(O)CCO[N+](=O)[O-])CC4)ccc3OCC)nc12` (single isomer, unassigned) [Compound 1e, 3-(1-((4-ethoxy-3-(1-methyl-7-oxo-3-propyl-6,7-dihydro-1H-pyrazolo[4,3-d]pyrimidin-5-yl)phenyl)sulfonyl)piperidin-4-yl)-3-hydroxypropyl nitrate]: the IC50 turned out to be 4600 pM. For the compound `CCCc1nn(C)c2c(=O)[nH]c(-c3cc(S(=O)(=O)N4CCC(C(O)(CCO[N+](=O)[O-])CCO[N+](=O)[O-])CC4)ccc3OCC)nc12` [Compound 1h, 3-(1-((4-ethoxy-3-(1-methyl-7-oxo-3-propyl-6,7-dihydro-1H-pyrazolo[4,3-d]pyrimidin-5-yl)phenyl)sulfonyl)piperidin-4-yl)-3-hydroxypentane-1,5-diyl dinitrate], the IC50 is 4700 pM.

In the case of `CCCc1nc(C)c2c(=O)[nH]c(-c3cc(S(=O)(=O)N4CCC(C(O)CCO[N+](=O)[O-])CC4)ccc3OCC)nn12` (single isomer, unassigned) [Compound 2e, 3-(1-((4-ethoxy-3-(5-methyl-4-oxo-7-propyl-3,4-dihydroimidazo[5,1-f][1,2,4]triazin-2-yl)phenyl)sulfonyl)piperidin-4-yl)-3-hydroxypropyl nitrate], the IC50 turned out to be 200 pM. As to `CCCc1nn(C)c2c(=O)[nH]c(-c3cc(S(=O)(=O)N4CCC([C@H](O)CO[N+](=O)[O-])CC4)ccc3OCC)nc12` [Compound 1d, (S)-2-(1-((4-ethoxy-3-(1-methyl-7-oxo-3-propyl-6,7-dihydro-1H-pyrazolo[4,3-d]pyrimidin-5-yl)phenyl)sulfonyl)piperidin-4-yl)-2-hydroxyethyl nitrate], the IC50 was 1200 pM.

Turning to `CCCc1nc(C)c2c(=O)[nH]c(-c3cc(S(=O)(=O)N4CCC([C@H](O)CO)CC4)ccc3OCC)nn12` [Compound 26, (S)-2-(5-((4-(1,2-dihydroxyethyl)piperidin-1-yl)sulfonyl)-2-ethoxyphenyl)-5-methyl-7-propyl imidazo[5,1-f][1,2,4]triazin-4(3H)-one], the IC50 was 70 pM. Same read-out and setting: in the case of `CCCc1nc(C)c2c(=O)[nH]c(-c3cc(S(=O)(=O)N4CCC(C(O)CCO[N+](=O)[O-])CC4)ccc3OCC)nn12` (single isomer, unassigned) [Compound 2f, 3-(1-((4-ethoxy-3-(5-methyl-4-oxo-7-propyl-3,4-dihydroimidazo[5,1-f][1,2,4]triazin-2-yl)phenyl)sulfonyl)piperidin-4-yl)-3-hydroxypropyl nitrate] it was 300 pM. Still for that read-out and setting: in the case of `CCCc1nc(C)c2c(=O)[nH]c(-c3cc(S(=O)(=O)N4CCC(C(O)CCO)CC4)ccc3OCC)nn12` (racemic) [Compound 27, 2-(5-((4-(1,3-dihydroxypropyl)piperidin-1-yl)sulfonyl)-2-ethoxyphenyl)-5-methyl-7-propylimidazo[5,1-f][1,2,4]triazin-4(3H)-one] it was 400 pM; in that of `CCCc1nn(C)c2c(=O)[nH]c(-c3cc(S(=O)(=O)N4CCC(C(O)(CCO)CCO)CC4)ccc3OCC)nc12` [Compound 15, 5-(2-ethoxy-5-((4-(1,3,5-trihydroxypentan-3-yl)piperidin-1-yl)sulfonyl)phenyl)-1-methyl-3-propyl-1,6-dihydro-7H-pyrazolo[4,3-d]pyrimidin-7-one], 2000 pM. In the case of `CCCc1nc(C)c2c(=O)[nH]c(-c3cc(S(=O)(=O)N4CCC(C(CO)O[N+](=O)[O-])CC4)ccc3OCC)nn12` (single isomer, unassigned) [Compound 2k, 1-(1-((4-ethoxy-3-(5-methyl-4-oxo-7-propyl-3,4-dihydroimidazo[5,1-f][1,2,4]triazin-2-yl)phenyl)sulfonyl)piperidin-4-yl)-2-hydroxyethyl nitrate], the IC50 came out at 260 pM. `CCCc1nn(C)c2c(=O)[nH]c(-c3cc(S(=O)(=O)N4CCC([C@H](O)CO)CC4)ccc3OCC)nc12` [Compound 6, (S)-5-(5-((4-(1,2-dihydroxyethyl)piperidin-1-yl)sulfonyl)-2-ethoxyphenyl)-1-methyl-3-propyl-1,6-dihydro-7H-pyrazolo[4,3-d]pyrimidin-7-one]: the IC50 amounted to 1600 pM.

In the case of `CCCc1nn(C)c2c(=O)[nH]c(-c3cc(S(=O)(=O)N4CCC(C(CO)O[N+](=O)[O-])CC4)ccc3OCC)nc12` (single isomer, unassigned) [Compound 1l, 1-(1-((4-ethoxy-3-(1-methyl-7-oxo-3-propyl-6,7-dihydro-1H-pyrazolo[4,3-d]pyrimidin-5-yl)phenyl)sulfonyl)piperidin-4-yl)-2-hydroxyethyl nitrate], the IC50 turned out to be 690 pM. Same read-out and setting: in the case of `CCCc1nn(C)c2c(=O)[nH]c(-c3cc(S(=O)(=O)N4CCC(C(CO)O[N+](=O)[O-])CC4)ccc3OCC)nc12` (single isomer, unassigned) [Compound 1k, 1-(1-((4-ethoxy-3-(1-methyl-7-oxo-3-propyl-6,7-dihydro-1H-pyrazolo[4,3-d]pyrimidin-5-yl)phenyl)sulfonyl)piperidin-4-yl)-2-hydroxyethyl nitrate] it was 550 pM; in that of `CCCc1nc(C)c2c(=O)[nH]c(-c3cc(S(=O)(=O)N4CCC([C@@H](CO[N+](=O)[O-])O[N+](=O)[O-])CC4)ccc3OCC)nn12` [Compound 2b, (S)-1-(1-((4-ethoxy-3-(5-methyl-4-oxo-7-propyl-3,4-dihydroimidazo[5,1-f][1,2,4]triazin-2-yl)phenyl)sulfonyl)piperidin-4-yl)ethane-1,2-diyl dinitrate], 280 pM.

Test system in a further data set: not listed separately
The data set is described as follows: Human plasma protein binding. Format: in vitro ADME. The following applies: human, read-out: % Bound in human plasma (converted). As to the method:
An aliquot of 200 μL of human plasma containing test compound was spiked into donor well (red chamber) of the insert. 350 μL of PBS was spiked into receiver well (white chamber) of the insert.
The samples were matrix equilibrated with opposite matrix (25 μL of plasma/buffer sample was matched with 25 μL of blank buffer/plasma). Matrix matched samples were precipitated with 200 μL of acetonitrile containing internal standard. Samples were vortexed at 1000 rpm for 5 min and centrifuged at 4000 rpm for 10 min. Supernatant was separated, diluted 2 fold with water and analysed in LC-MS/MS. (Table 2).
For `CCCc1nc(C)c2c(=O)[nH]c(-c3cc(S(=O)(=O)N4CCC([C@H](O)CO[N+](=O)[O-])CC4)ccc3OCC)nn12` [Compound 2d, (S)-2-(1-((4-ethoxy-3-(5-methyl-4-oxo-7-propyl-3,4-dihydroimidazo[5,1-f][1,2,4]triazin-2-yl)phenyl)sulfonyl)piperidin-4-yl)-2-hydroxyethyl nitrate], the fraction unbound was 0.0173.

As for `CCCc1nn(C)c2c(=O)[nH]c(-c3cc(S(=O)(=O)N4CCN(C)CC4)ccc3OCC)nc12` [Sildenafil, 5-(2-ethoxy-5-((4-methylpiperazin-1-yl)sulfonyl)phenyl)-1-methyl-3-propyl-1,6-dihydro-7H-pyrazolo[4,3-d]pyrimidin-7-one, reference compound], the fraction unbound is 0.0421.

Staying with this data set, now noted: human, read-out: % Unbound in human plasma.
Consider `CCCc1nc(C)c2c(=O)[nH]c(-c3cc(S(=O)(=O)N4CCC([C@H](O)CO[N+](=O)[O-])CC4)ccc3OCC)nn12` [Compound 2d, (S)-2-(1-((4-ethoxy-3-(5-methyl-4-oxo-7-propyl-3,4-dihydroimidazo[5,1-f][1,2,4]triazin-2-yl)phenyl)sulfonyl)piperidin-4-yl)-2-hydroxyethyl nitrate], for which the fraction unbound is 0.0173. Still for that read-out and setting: the same measure for `CCCc1nn(C)c2c(=O)[nH]c(-c3cc(S(=O)(=O)N4CCN(C)CC4)ccc3OCC)nc12` [Sildenafil, 5-(2-ethoxy-5-((4-methylpiperazin-1-yl)sulfonyl)phenyl)-1-methyl-3-propyl-1,6-dihydro-7H-pyrazolo[4,3-d]pyrimidin-7-one, reference compound]: 0.0419.
